A short description of data set [1]: Imaging in dog before and after plasma loading with bromosulphthalein (BSP), compared with I-131 Rose Bengal.
A short description of data set [2]: Scintillation camera imaging and blood level in dogs after intravenous injection. The settings on record: dog.
Method: One animal was selected for imaging at various time intervals utilizing a scintillation camera. […] Sufficiet cholecystokinin was injected into the dog intravenously to effect contraction of the gall bladder. […] The images were obtained using a gamma scintillation camera (Pho Gamma III) and a parallel hole high sensitivity collimator.
Data set [3] is described as follows: Biodistribution in mice after intravenous injection (organ counting in scintillation counter). Format: in vivo. The settings on record: 25 g mice; i.v.; 60 minutes.

SMILES strings stand for the structures.

Consider `Cc1cccc(C)c1NC(=O)CN(CC(=O)O)CC(=O)O` (99mTc complex, metal not drawn) [Example 2], for which the “effect of BSP loading on plasma clearance or imaging characteristics” value in data set [1] (dog, BSP levels of 4-7 mg percent to simulate hyperbilirubinemia) is listed as “did not substantially alter the plasma clearance or imaging characteristics”. Further, the “image quality compared to I-131 Rose Bengal” value in data set [1] (same dog, FIG. 5) is recorded as “much better quality”. Further, the “time to leaving the gall bladder after cholecystokinin injection” value in data set [2] (after i.v. cholecystokinin, FIG. 4 Frame E) was not above 1 min. The “time at which the liver is clearly identified” value in data set [2] (i.v. 4 mCi, FIG. 3 Frame A) is 5 min. The “uptake by the liver” value in data set [2] (i.v. 4 mCi, anterior imaging, FIG. 3) was “rapid uptake by the liver”. In addition, in data set [2] (i.v. 4 mCi, at 10 minutes), the “injected dose remaining in the blood” value is “Less than 10%”. In addition, the “clearance from the liver / accumulation in gall bladder” value in data set [2] (i.v. 4 mCi, images at 25, 40 and 50 minutes) is “clearance from the liver is demonstrated with progressive accumulation of the radiopharmaceutical in the gall bladder”. In addition, the “injected dose remaining in the blood (second value of "10% and 3% ... respectively")” value in data set [2] (i.v. 4 mCi, only "10 minutes" printed, second time missing) is reported as less than 3%.
`Oc1cccc2cccnc12` [Example 8, technetium-99m chelate of 8-hyroxyquinoline]: in data set [3], the “injected dose in the intestines” value is 20% and the “injected dose in the liver” value is 40%.
For `Oc1cccc2cccnc12` [Example 9, gallium-67 chelate of 8-hydroxyquinoline], in data set [3], the “injected dose in the blood” value was 20%, the “injected dose in the intestines” value came out at 13% and the “injected dose in the liver” value is on record as 25%.

The values above are taken from patent US4017596A, “Radiopharmaceutical chelates and method of external imaging” (priority 1975, dated 1977).
